{"source": "patent US20220088020A1", "about": "“TREATMENT OF ALOPECIA AREATA” (LEO PHARMA A/S, priority 2015, published 2022)", "key": {"[1]": {"tested_on": "C3H/HeJ mouse alopecia model", "test": "Experiment 1: promotion of hair growth in C3H/HeJ mouse alopecia model", "format": "in vivo", "conditions": "Compound A 1% or 3% by weight in carrier, 50 μL applied to dorsal region once a day for 78 days; median of each group, FIG. 1", "experimental": "(§1) An effect of promoting hair growth by Compound A was evaluated using a C3H/HeJ mouse alopecia model (Non-Patent Literature 1).\nA skin specimen having a diameter of 2 to 2.5 cm was prepared from a retired C3H/HeJJcI mouse (CLEA Japan, Inc.) which had spontaneously developed alopecia universalis, and was grafted into a dorsal region of each of eight-week-old female C3H/HeJJcI mice (CLEA Japan, Inc.). Twenty weeks after the surgery, mice which developed alopecia throughout the whole bodies thereof were selected, and a carrier, 1% by weight of a test substance, 3% by weight of the test substance or a control substance was applied to the dorsal region at a volume of 50 μL once a day for 78 days. Day 1 was a day on which the application started. The carrier used was a mixture which contained white soft paraffin, hard paraffin and squalane at a blend ratio of 85:5:10. Compound A was used as the test substance. A betamethasone valerate ointment (0.12%) was used as the control substance.\nThe Hair Growth Index (HGI) in the dorsal region of each of the mice was determined on day 1, day 7, day 15, day 29, day 43, day 57, day 71 and day 79. […]"}, "[2]": {"tested_on": "C3H/HeJ mouse alopecia model", "test": "Experiment 2: promotion of hair growth in C3H/HeJ mouse alopecia model", "format": "in vivo", "conditions": "Compound A ointment 0.3% or 3% by weight, 50 μL applied to dorsal region once a day for 84 days; median of each group, FIG. 2", "experimental": "as §1\nA skin specimen having a diameter of 2 cm was prepared from a retired C3H/HeJJcI mouse (CLEA Japan, Inc.) which had spontaneously developed alopecia universalis, and was grafted into a dorsal region of each of eight-week-old female C3H/HeJJcI mice (CLEA Japan, Inc.). […]\nThe Hair Growth Index (HGI) in the dorsal region of each of the mice was determined on day 1, day 19, day 29, day 43, day 57, day 71 and day 85. The HGI for each of the mice was calculated by measuring, with naked eyes, the level of the state of hair growth (score; 0: no hair, 1: stubble, short broken hairs, 2: sparse intermediate length hairs, 3: normal length and density hairs) and the percentage (%) of the skin area in which each level of state of hair growth occurred, determining the product of the level of the state of hair growth (score) with the percentage (%) of the skin area in which its level of the state of hair growth occurred, and then summing all of the values of the products."}, "JAK": {"tested_on": "JAK", "conditions": "JAK = one or more of JAK1, JAK2, JAK3, TYK2; described in Patent Literature 1 and 2; cited from earlier work"}}, "data": [{"smiles": "C[C@H]1CN(C(=O)CC#N)[C@]12CCN(c1ncnc3[nH]ccc13)C2", "note": "[Compound A, 3-[(3S,4R)-3-methyl-6-(7H-pyrrolo[2,3-d]pyrimidin-4-yl)-1,6-diazaspiro[3.4]octan-1-yl]-3-oxopropanenitrile]", "values": [{"measurement": "Hair Growth Index (HGI) in the dorsal region", "setting": "[1]", "result": "promotion of hair growth"}, {"measurement": "Hair Growth Index (HGI) in the dorsal region", "setting": "[2]", "result": "promotion of hair growth"}, {"measurement": "JAK inhibition", "setting": "JAK", "result": "inhibit JAK"}]}]}
